From patent US20240269212A1, “HEMP EXTRACT FOR TREATMENT OF PAIN, CANCER AND EPILEPSY IN ANIMALS” (Portland Technology Holdings LLC., priority 2021, published 2024)

Legend:
[1] = Serum cannabinoid concentrations after 1 and 2 weeks of twice daily dosing (relative steady state); type: in vivo, dog (beagle); details: for concentration at 6 h: male, beagle, dog, 2 mg/kg, 2 mg/kg twice daily, six hours after the morning dose
Description: Six intact male beagles all 2 years of age weighing between 18.6 and 22.2 kilograms body weight were housed at the Baker Institute for Animal Health and all procedures were approved by the Cornell University Institutional Animal Care and Use Committee (Protocol 2019-0001). All dogs underwent the fasted treatment trial for a two-week period and were then allowed 2 weeks of washout before beginning the fed stage of the trial which included ¼ of a 13 ounce can of a wet food (PURINA® Pro Plan Savory Chicken and Rice Formula, Nestle Purina, St. Louis, MO) at the time of dosing. Twenty-four hour pharmacokinetic analysis of serum cannabinoid levels was performed on day 1 after a single dose in the fed or fasted state. Then, twice daily dosing of treatment oil at both 7 am and 7 pm was performed on the following days for two weeks, and serum cannabinoids were measured. Prior to the study all dogs had blood drawn for a complete blood count and serum chemistry and again at the end of each phase of the 2 week study. Complete blood counts (white blood cells [WBC], hematocrit, hemoglobin, red blood cells [RBC], neutrophils, lymphocytes, platelets, monocytes, eosinophils, basophils) and serum biochemistry analyses (sodium, potassium, chloride, magnesium, calcium, phosphorus, albumin, total protein, globulin, urea nitrogen, creatinine, alkaline phosphatase [ALP], alanine aminotransferase [ALT], aspartate amino transferase [AST], cholesterol, total bilirubin, glucose and gamma glutamyl transferase [GGT]) were performed at the Cornell University Diagnostic Laboratory. For the fasted and fed portions of the 24 hour pharmacokinetic analysis study the dogs were administered 2 mg/kg body weight of an equal mix of 30 mg/mL CBG and 30 mg/mL CBGA from a hemp extract in a sesame oil base which was tested again at the end of the study showing virtually the same analytical profile. Two milliliters of blood was drawn via jugular venipuncture for all 6 dogs prior to the initial dose (0 hours) and then again at 0.5, 1, 2, 4, 8, 12 and 24 hours. Prior to enrollment all dogs involved in the study were deemed healthy based on physical examination. Behavioral observations were performed 2 hours after morning dosing for each phase of the trial. Behavioral observations were performed on day 1, day 3, day 7, and day 14. Physical and behavioral examinations were performed to assess for adverse events including diarrhea, vomiting, lethargy, somnolence, ataxia, or abnormal behavior within the colony. Due to the potential for CBG/CBGA to affect heart rate, dogs were assessed manually for resting heart rates for 30 seconds and extrapolated to relative beats per minute after initial dosing at time points 0, 1, 2, 4, 12, 24 and 48 hours and again at day 7 and day 14 after morning dosing for both the fed and fasted arms of the study. Serum was also obtained on day 7 and day 14 six hours after the morning dose for further serum cannabinoid measurement to establish relative steady state serum concentrations.
Analysis was performed using an exploratory (fit-for-purpose) method for fast measurement of thirteen cannabinoids and their metabolites at the Toxicology Research Laboratory, University of Illinois at Chicago. The reference standards for CBD and CBDA were obtained from Restek Corporation (Bellefonte, PA); all other reference and internal standards including CBG and CBGA were obtained from Cerilliant Corporation (Round Rock, TX). The concentrations of cannabinoids (CBD, CBDA, 7-COOH Cannabidiol (7-COOH-CBD), THC, THCA, cannabinol (CBN), cannabichromene (CBC), CBG, and CBGA) and their metabolites (7-OH-CBD, 7-COOH-CBD, COOH-THC, and COOH-THC-Glu) in dog sera were determined using high performance liquid chromatography with tandem mass spectrometry (LC-MS/MS) (Nexera X2 and LCMS 8050, Shimadzu Corp., Kyoto, Japan). […]

[2] = Physical and behavioral examinations for adverse events; type: in vivo; details: healthy dogs, oral 2 mg/kg twice daily for 2 weeks
Description: All dogs underwent the fasted treatment trial for a two-week period and were then allowed 2 weeks of washout before beginning the fed stage of the trial which included ¼ of a 13 ounce can of a wet food (PURINA® Pro Plan Savory Chicken and Rice Formula, Nestle Purina, St. Louis, MO) at the time of dosing. […] Prior to the study all dogs had blood drawn for a complete blood count and serum chemistry and again at the end of each phase of the 2 week study. Complete blood counts (white blood cells [WBC], hematocrit, hemoglobin, red blood cells [RBC], neutrophils, lymphocytes, platelets, monocytes, eosinophils, basophils) and serum biochemistry analyses (sodium, potassium, chloride, magnesium, calcium, phosphorus, albumin, total protein, globulin, urea nitrogen, creatinine, alkaline phosphatase [ALP], alanine aminotransferase [ALT], aspartate amino transferase [AST], cholesterol, total bilirubin, glucose and gamma glutamyl transferase [GGT]) were performed at the Cornell University Diagnostic Laboratory. […] Due to the potential for CBG/CBGA to affect heart rate, dogs were assessed manually for resting heart rates for 30 seconds and extrapolated to relative beats per minute after initial dosing at time points 0, 1, 2, 4, 12, 24 and 48 hours and again at day 7 and day 14 after morning dosing for both the fed and fasted arms of the study.

[3] = Manual resting heart rate monitoring; type: in vivo, dog (beagle); details: initial dosing and two-week period of treatment
Description: Six intact male beagles all 2 years of age weighing between 18.6 and 22.2 kilograms body weight were housed at the Baker Institute for Animal Health and all procedures were approved by the Cornell University Institutional Animal Care and Use Committee (Protocol 2019-0001). All dogs underwent the fasted treatment trial for a two-week period and were then allowed 2 weeks of washout before beginning the fed stage of the trial which included ¼ of a 13 ounce can of a wet food (PURINA® Pro Plan Savory Chicken and Rice Formula, Nestle Purina, St. Louis, MO) at the time of dosing. Twenty-four hour pharmacokinetic analysis of serum cannabinoid levels was performed on day 1 after a single dose in the fed or fasted state. Then, twice daily dosing of treatment oil at both 7 am and 7 pm was performed on the following days for two weeks, and serum cannabinoids were measured. Prior to the study all dogs had blood drawn for a complete blood count and serum chemistry and again at the end of each phase of the 2 week study. […] Due to the potential for CBG/CBGA to affect heart rate, dogs were assessed manually for resting heart rates for 30 seconds and extrapolated to relative beats per minute after initial dosing at time points 0, 1, 2, 4, 12, 24 and 48 hours and again at day 7 and day 14 after morning dosing for both the fed and fasted arms of the study. […]

SMILES | concentration at 6 h ([1]; serum, oral, week one, fasted) | concentration at 6 h ([1]; serum, oral, week one, fed) | concentration at 6 h ([1]; serum, oral, week two, fasted) | concentration at 6 h ([1]; serum, oral, week two, fed) | Short-term safety (serum biochemistry, blood count, physical exam and heart rate monitoring) [2] | concentration at 6 h ([1]; in vivo, week one, fasted) | concentration at 6 h ([1]; in vivo, week one, fed) | concentration at 6 h ([1]; in vivo, week two, fasted) | concentration at 6 h ([1]; in vivo, week two, fed) | absorption and retention, fold higher than what can be achieved with CBG ([1]; oral dosing over a 2-week period) | Bradycardia upon oral absorption [3]
CCCCCc1cc(O)c(C/C=C(\C)CCC=C(C)C)c(O)c1 [CBG, cannabigerol] | 5 ± 3.5 ng/mL | 12.7 ± 12.3 ng/mL | 6.1 ± 6 ng/mL | 9.6 ± 8.4 ng/mL | appear to be safe | – | – | – | – | – | –
CCCCCc1cc(O)c(C/C=C(\C)CCC=C(C)C)c(O)c1C(=O)O [CBGA, cannabigerolic acid] | – | – | – | – | appear to be safe | 437 ± 414 ng/mL | 564 ± 574 ng/mL | 260 ± 300 ng/mL | 223 ± 197 ng/mL | ~10 fold | does not induce bradycardia
